Key:
[1] = test system: larvae of the leafminer fly (Liriomyza trifolii); assay: Liriomyza trifolii test; type: in vivo; conditions: 500 ppm; infested bean leaf discs sprayed
Experimental: (§1) An appropriate preparation of active compound is prepared by mixing 1 part by weight of active compound with the stated amounts of solvent and emulsifier and diluting the concentrate with emulsifier-containing water to the desired concentration.
Bean leaf discs (Phaseolus vulgaris) infested by larvae of the leafminer fly (Liriomyza trifolii) are sprayed with a preparation of active compound at the desired concentration.
After the desired time the effect in % is determined. 100% means that all of the leafminer flies have been killed; 0% means that no leafminer flies have been killed.

[2] = log P determination by HPLC on reverse-phase column (EEC Directive 79/831 Annex V.A8); type: physicochemical; conditions: HPLC on reverse-phase column
Procedure, shortened: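 Log P was derived from retention times by linear interpolation between successive unbranched alkan-2-one standards (C3–C16). The standards and samples ran on a C18 reverse-phase column at 43 °C with a 10→95% acetonitrile gradient in 0.1% formic acid (pH 2.7). The method follows EEC Directive 79/831 Annex V.A8.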

[3] = test system: caterpillars of the armyworm (Spodoptera frugiperda); assay: Spodoptera frugiperda test (cabbage leaves, immersion); type: in vivo; conditions: cabbage leaves immersed
Experimental: as §1
Cabbage leaves (Brassica oleracea) are treated by immersion into a preparation of active compound at the desired concentration and, are populated with caterpillars of the armyworm (Spodoptera frugiperda) while the leaves are still wet.
After the desired time the effect in % is determined. 100% means that all of the caterpillars have been killed; 0% means that no caterpillars have been killed.
Cabbage leaves (Brassica oleracea) are treated by immersion into a preparation of active compound at the desired concentration and are populated with caterpillars of the armyworm (Spodoptera frugiperda) while the leaves are still wet.

[4] = test system: Myzus persicae; assay: Myzus persicae test; type: in vivo; conditions: 30 ppm; preparation provided for consumption
Experimental: (§2) An appropriate preparation of active compound is prepared by mixing the active compound with the stated amounts of solvent and diluting the concentrate with […] water to the desired concentration.
The Myzus persicae is provided with a preparation of active compound at the desired concentration for consumption.
After the desired time the effect in % is determined. 100% means that all of the aphids have been killed; 0% means that no aphids have been killed.

[5] = test system: Aedes aegypti larvae; assay: Aedes aegypti test; type: in vivo; conditions: 30 ppm; larvae treated
Experimental: as §2
The Aedes aegypti larvae are treated with a preparation of active compound at the desired concentration.
After the desired time the effect in % is determined. 100% means that all of the Aedes aegypti have been killed; 0% means that no Aedes aegypti have been killed.

[6] = test system: Diabrotica undecimpunctata eggs; assay: Diabrotica undecimpunctata test; type: in vivo; conditions: 300 ppm; eggs treated
Experimental: as §2
The Diabrotica undecimpunctata eggs are treated with a preparation of active compound at the desired concentration.
(§3) After the desired time the effect in % is determined. 100% means that all of the eggs/larvae have been killed; 0% means that no eggs/larvae have been killed.

[7] = test system: Heliothis virescens eggs; assay: Heliothis virescens test; type: in vivo; conditions: 300 ppm; eggs treated
Experimental: as §2
The Heliothis virescens eggs are treated with a preparation of active compound at the desired concentration.
as §3

Row | SMILES | logP [2] | Kill level after 7 d in % ([3]; 100 g/ha) | also measured
1 | CNC(=O)c1cc(Cl)cc(C)c1NC(=O)c1cc(Cn2cc(C(F)(F)C(F)(F)F)c(C(F)(F)C(F)(F)F)n2)nn1-c1ncccc1Cl [I-1-3] | 4.39 | 100% | Kill level after 7 d in % [1]: 98%; Kill level after 7 d in % ([3]; 0.8 g/ha): 100%
2 | CNC(=O)c1cc(Cl)cc(C)c1NC(=O)c1cc(Cn2cc(Cl)cn2)nn1-c1ncccc1Cl [I-1-4] | 2.54 | 100% | Kill level after 7 d in % [1]: 95%
3 | Cc1cc(Cl)cc(C(=O)NC(C)C)c1NC(=O)c1cc(Cn2cccn2)nn1-c1ncccc1Cl [I-1-9] | 2.45 | 100% | –
4 | Cc1cc(Cl)cc(C(=O)NC(C)C)c1NC(=O)c1cc(Cn2nc(C(F)(F)F)cc2C(F)(F)F)nn1-c1ccccc1Cl [I-1-10] | 4.70 | 100% | –
5 | CNC(=O)c1cc(Cl)cc(C)c1NC(=O)c1cc(Cn2nc(C(F)(F)F)cc2C(F)(F)F)nn1-c1ccccc1Cl [I-1-11] | 4.12 | 100% | –
6 | Cc1cc(Cl)cc(C(=O)NC(C)C)c1NC(=O)c1cc(Cn2cc(C(F)(F)C(F)(F)F)c(C(F)(F)C(F)(F)F)n2)nn1-c1ncccc1Cl [I-1-12] | 4.89 | 100% | –
7 | Cc1cc(Br)cc(C(=O)NC(C)C)c1NC(=O)c1cc(Cn2cc(C(F)(F)C(F)(F)F)c(C(F)(F)C(F)(F)F)n2)nn1-c1ncccc1Cl [I-1-13] | 4.98 | 100% | Kill level after 6-7 d in % [4]: 100%; Kill level after 2-4 d in % [5]: 100%; Kill level after 2-5 d in % [6]: 100%; Kill level after 6-7 d in % [7]: 100%
8 | Cc1cc(Cl)cc(C(=O)NC(C)C)c1NC(=O)c1cc(Cn2cc(I)c(C(F)(F)C(F)(F)F)n2)nn1-c1ncccc1Cl [I-1-14] | 4.29 | 100% | Kill level after 6-7 d in % [4]: 100%; Kill level after 2-4 d in % [5]: 100%; Kill level after 2-5 d in % [6]: 100%; Kill level after 6-7 d in % [7]: 100%
9 | Cc1cc(Cl)cc(C(=O)NC(C)C)c1NC(=O)c1cc(Cn2cc(Cl)c(C(F)(F)F)n2)nn1-c1ncccc1Cl [I-1-15] | 3.85 | 100% | Kill level after 6-7 d in % [4]: 100%; Kill level after 2-4 d in % [5]: 100%; Kill level after 2-5 d in % [6]: 100%; Kill level after 6-7 d in % [7]: 100%
10 | CNC(=O)c1cc(Cl)cc(C)c1NC(=O)c1cc(Cn2cc(I)c(C(F)(F)C(F)(F)F)n2)nn1-c1ncccc1Cl [I-1-16] | 3.79 | 100% | –
11 | CNC(=O)c1cc(Cl)cc(C)c1NC(=O)c1cc(Cn2cc(Cl)c(C(F)(F)F)n2)nn1-c1ncccc1Cl [I-1-17] | 3.35 | 100% | –
12 | Cc1cc(Cl)cc(C(=O)NC(C)C)c1NC(=O)c1cc(Cn2ccc(C(F)(F)C(F)(F)F)n2)nn1-c1ncccc1Cl [I-1-18] | 3.75 | 100% | –
13 | CNC(=O)c1cc(Cl)cc(C)c1NC(=O)c1cc(Cn2ccc(C(F)(F)C(F)(F)F)n2)nn1-c1ncccc1Cl [I-1-19] | 3.29 | 100% | –
14 | Cc1cc(Br)cc(C(=O)NC(C)C)c1NC(=O)c1cc(Cn2nc(C(F)(F)F)cc2C(F)(F)F)nn1-c1ncccc1Cl [I-1-20] | 4.16 | 100% | –
15 | Cc1cc(Cl)cc(C(=O)NC(C)C)c1NC(=O)c1cc(Cn2cncn2)nn1-c1ncccc1Cl [I-1-21] | 2.02 | 100% | –
16 | Cc1cc(Br)cc(C(=O)NC(C)C)c1NC(=O)c1cc(Cn2nc(C(F)(F)F)nc2C(F)(F)F)nn1-c1ncccc1Cl [I-1-22] | 3.91 | 100% | Kill level after 7 d in % [1]: 98%; Kill level after 7 d in % ([3]; 4 g/ha): 100%
17 | Cc1cc(Cl)cc(C(=O)NC(C)C)c1NC(=O)c1cc(Cn2nc(C(F)(F)C(F)(F)F)nc2C(F)(F)F)nn1-c1ncccc1Cl [I-1-23] | 4.25 | 100% | –

Row | SMILES | logP [2] | Kill level after 7 d in % ([3]; 100 g/ha) | also measured
18 | CNC(=O)c1cc(Br)cc(C)c1NC(=O)c1cc(Cn2nc(C(F)(F)C(F)(F)F)cc2C(F)(F)C(F)(F)F)nn1-c1ncccc1Cl [I-1-24] | 4.49 | 100% | –
19 | CNC(=O)c1cc(Br)cc(C)c1NC(=O)c1cc(Cn2cc(C(F)(F)C(F)(F)F)c(C(F)(F)C(F)(F)F)n2)nn1-c1ncccc1Cl [I-1-25] | 4.39 | 100% | –
20 | CNC(=O)c1cc(Cl)cc(C)c1NC(=O)c1cc(Cn2nc(C(F)(F)C(F)(F)F)nc2C(F)(F)C(F)(F)F)nn1-c1ncccc1Cl [I-1-26] | 4.17 | 100% | –
21 | CNC(=O)c1cc(Cl)cc(C)c1NC(=O)c1cc(Cn2nc(C(F)(F)C(F)(F)F)cc2C(F)(F)C(F)(F)F)nn1-c1ncccc1Cl [I-1-27] | 4.45 | – | Kill level after 7 d in % ([3]; 20 g/ha): 83%
22 | Cc1cc(Cl)cc(C(=O)NC(C)C)c1NC(=O)c1cc(Cn2nc(C(F)(F)C(F)(F)F)c(C(F)(F)F)c2F)nn1-c1ncccc1Cl [I-1-28] | 4.63 | 100% | –
23 | Cc1cc(Cl)cc(C(=O)NC(C)C)c1NC(=O)c1cc(Cn2nc(C(F)(F)C(F)(F)F)nc2C(F)(F)C(F)(F)F)nn1-c1ncccc1Cl [I-1-29] | 4.64 | 100% | –
24 | CNC(=O)c1cc(Cl)cc(C)c1NC(=O)c1cc(Cn2cc(Cl)c(C(F)(F)C(F)(F)F)n2)nn1-c1ncccc1Cl [I-1-30] | 3.77 | 100% | –
25 | Cc1cc(Cl)cc(C(=O)NC(C)C)c1NC(=O)c1cc(Cn2cc(Cl)c(C(F)(F)C(F)(F)F)n2)nn1-c1ncccc1Cl [I-1-31] | 4.21 | 100% | –
26 | Cc1cc(Cl)cc(C(=O)NCC#N)c1NC(=O)c1cc(Cn2cc(Cl)c(C(F)(F)C(F)(F)F)n2)nn1-c1ncccc1Cl [I-1-32] | 3.70 | 100% | –
27 | Cc1cc(Br)cc(C(=O)NCC#N)c1NC(=O)c1cc(Cn2cc(C(F)(F)C(F)(F)F)c(C(F)(F)C(F)(F)F)n2)nn1-c1ncccc1Cl [I-1-33] | 4.28 | 100% | –
28 | CNC(=O)c1cc(Cl)cc(C)c1NC(=O)c1cc(Cn2cc(Br)c(C(F)(F)C(F)(F)F)n2)nn1-c1ncccc1Cl [I-1-34] | 3.80 | 100% | –
29 | CNC(=O)c1cc(Cl)cc(C)c1NC(=O)c1cc(Cn2nc(C(F)(F)F)nc2C(F)(F)F)nn1-c1ncccc1Cl [I-1-35] | 3.43 | 100% | –
30 | CNC(=O)c1cc(Br)cc(C)c1NC(=O)c1cc(Cn2nc(C(F)(F)F)nc2C(F)(F)F)nn1-c1ncccc1Cl [I-1-36] | 3.52 | 100% | –
31 | Cc1cc(Br)cc(C(=O)NC(C)C)c1NC(=O)c1cc(Cn2nc(C(F)(F)C(F)(F)F)nc2C(F)(F)C(F)(F)F)nn1-c1ncccc1Cl [I-1-37] | 4.73 | 100% | –
32 | CNC(=O)c1cc(Br)cc(C)c1NC(=O)c1cc(Cn2nc(C(F)(F)C(F)(F)F)nc2C(F)(F)C(F)(F)F)nn1-c1ncccc1Cl [I-1-39] | 4.31 | 100% | –
33 | Cc1cc(Cl)cc(C(=O)NC(C)C)c1NC(=O)c1cc(Cn2nc(C(F)(F)F)nc2C(F)(F)F)nn1-c1c(Cl)cccc1Cl [I-1-40] | 4.58 | 100% | –
